# Patent US5196327A, “Process for producing antifungal fermentation products and compositions thereof” (Merck & Co., Inc., priority 1991, dated 1993)
# Read-outs that look alike come from different tables or passages of the source.
# Columns and labels:
# [1] = system: Aspergillus niger; assay: Antifungal disc diffusion assay; format: cell-based
# From the text: (§1) The antifungal activity of the compounds may be detected in an antifungal assay employing disc diffusion methods against a panel of representative yeasts, filamentous fungi (molds) and bacteria.
# (§2) The filamentous fungi used in the assay are Cochliobolus miyabeanus, Penicillium sp. (three strains), Aspergillus niger, Trichoderma sp., Phoma sp., Trichoderma lignorum, Fusarium oxysporum, Ustilago maydis, Ceratocystis ulmi, Alternaria solani, Verticillium serrae, Botrytis allii, Scopulariopsis communis, Cephalosporium sp., Cercospora beticola, […], Rhizomucor miehei, Aspergillus flavus and Aspergillus fumigatus.
# (§3) The yeasts employed in the assay are Saccharomyces cerevisiae, Candida albicans, […], Candida tropicalis, Candida rugosa, Brettanomyces bruxellensis, Torulospora hansenii, Candida quilliermondi, Candida pseudotropicalis, Torulopsis glabrata, Cryptococcus albidus, and Cryptococcus laurentii.
# (§4) For carrying out the assay, seeded assay plates are prepared in the following manner according to the type of assay strain.
# Inocula for filamentous fungi are prepared by scraping the surface of stock plates maintained on potato dextrose agar with a moistened sterile dacron swab. […]
# (§5) Following incubation, the inhibition zones are measured and recorded. […]
# [2] = system: panel of representative yeasts, filamentous fungi (molds) and bacteria; assay: Antifungal disc diffusion assay, panel; format: cell-based; conditions: panel of organisms
# From the text: as §1, §2, §3
# The bacteria employed in the assay are Streptomyces sp., Acholeplasma laidlawii and Bacillus subtilis.
# as §4
# (§6) Inocula for filamentous fungi are prepared by scraping the surface of stock plates maintained on potato dextrose agar with a moistened sterile dacron swab. The spores and mycelia are then suspended in 10 milliliters of sterile potato dextrose broth and adjusted to 70 percent transmission at 660 nm.
# (§7) Inocula for yeasts and bacterial strains are prepared from overnight broth cultures then diluted into potato dextrose agar to a final concentration of either 40 percent or 70 percent transmission at 660 nm.
# When the organism is Acholephasma laidlawii, it is suspended in brain heart infusion broth supplemented with 2.5 percent yeast extract and 20 percent heat inactivated horse serum, and the broth adjusted to a final concentration of 60 percent transmission at 660 nm. […]
# as §5
# [3] = system: Ustilago maydis; assay: Antifungal disc diffusion assay; format: cell-based
# From the text: as §1, §2, §4, §6
# (§8) The seeded agar media thus prepared are dispensed into petri dishes for assays (11 milliliters per dish).
# The samples to be tested for production of antifungal agent are applied to 6.2 mm. filter paper discs (25 microliter/disc) and air dried at 24° C. […]
# as §5
# [4] = system: Candida albicans (five strains); assay: Antifungal disc diffusion assay; format: cell-based; conditions: five strains of Candida albicans
# From the text: as §1, §3, §4, §7
# For three strains of Candida albicans and one strain of Saccharomyces cerevisiae, sterile saline is employed in place of potato dextrose broth. Assay plates are prepared by diluting the inoculum into appropriate molten agar medium, cooled to 45° C. to obtain a final concentration of 4 percent.
# The seeded agar media thus prepared are dispensed into petri dishes for assays (11 milliliters per dish). […]
# as §5
# [5] = system: Candida tropicalis; assay: Antifungal disc diffusion assay; format: cell-based
# From the text: as §1, §3, §4, §7, §8
# (§9) The samples to be tested for production of antifungal agent are applied to 6.2 mm. filter paper discs (25 microliter/disc) and air dried at 24° C. When the sample to be tested is crude broth, it may be centrifuged prior to application. The discs bearing the material to be tested are then applied employing sterile conditions to the seeded assay plates and the samples rewet with 25 percent sterile aqueous dimethylsulfoxide (25 μl/disc). The assay plates are then incubated at either 28° C. or 37° C. for 24 hours. In one of the assays for Bacillus subtilis, the sample is applied to a disc previously impregnated with 4M potassium chloride at 25 μl/disc and then air dried.
# (§10) Following incubation, the inhibition zones are measured and recorded. The measurements are made from the extreme edge where growth differs from the background zone. The growths are noted as to appearance as fuzzy edge and clear center, hazy throughout, slightly hazy, very hazy or ringed.
# [6] = system: Torulospora hansenii; assay: Antifungal disc diffusion assay; format: cell-based
# From the text: as §1, §3, §4, §7, §8, §9, §10
# [7] = system: Cryptococcus albidus; assay: Antifungal disc diffusion assay; format: cell-based
# From the text: as §1, §3, §4, §7, §8, §9, §10
# [8] = system: Ca. pseudotropicalis MY1040; assay: Agar dilution assay, MIC; format: cell-based, Candida pseudotropicalis; conditions: strain MY1040, yeast nitrogen base dextrose agar; for MIC: read-out: Minimum Inhibitory Concentration
# Protocol: (§11) In separate operations, in vitro antifungal activity determinations were carried out with Compound IB and with Compound IC against a panel of filamentous and yeast-like fungi employing yeast nitrogen base dextrose agar medium. In carrying out the assay, the compound to be tested was solubilized in 10 percent dimethyl sulfoxide (DMSO) supplemented with one drop of Tween 20. Two-fold dilutions were made with sterile distilled water/10% DMSO to obtain final concentrations in the agar dilution assay plates ranging from 64 to 0.06 μg/ml in the operation with Compound IB and from 128 to 0.06 μg/ml in the operation with Compound IC.
# (§12) Nystatin (commercially available antifungal agent) was used as a positive antifungal control.
# [9] = system: A. flavus MF0383; assay: Agar dilution assay, MIC; format: cell-based, Aspergillus flavus; conditions: strain MF0383, yeast nitrogen base dextrose agar; for MIC: read-out: Minimum Inhibitory Concentration
# Protocol: as §11, §12
# [10] = system: Cr. neoformans MY1146; assay: Agar dilution assay, MIC; format: cell-based, Cryptococcus neoformans; conditions: strain MY1146, yeast nitrogen base dextrose agar; for MIC: read-out: Minimum Inhibitory Concentration
# Protocol: as §11, §12
# [11] = system: Ca. tropicalis MY1012; assay: Agar dilution assay, MIC; format: cell-based, Candida tropicalis; conditions: strain MY1012, yeast nitrogen base dextrose agar; for MIC: read-out: Minimum Inhibitory Concentration
# Protocol: as §11, §12
# [12] = system: Ca. tropicalis MY1011; assay: Agar dilution assay, MIC; format: cell-based, Candida tropicalis; conditions: strain MY1011, yeast nitrogen base dextrose agar; for MIC: read-out: Minimum Inhibitory Concentration
# Protocol: as §11, §12
# [13] = system: Ca. rugosa MY1022; assay: Agar dilution assay, MIC; format: cell-based, Candida rugosa; conditions: strain MY1022, yeast nitrogen base dextrose agar; for MIC: read-out: Minimum Inhibitory Concentration
# Protocol: as §11, §12
# [14] = system: Sac. cerevisiae MY1027; assay: Agar dilution assay, MIC; format: cell-based, Saccharomyces cerevisiae; conditions: strain MY1027, yeast nitrogen base dextrose agar; for MIC: Saccharomyces cerevisiae, read-out: Minimum Inhibitory Concentration
# Protocol: as §11, §12
# [15] = system: Candida albicans MY1058; assay: Agar dilution assay, MIC; format: cell-based; conditions: strain MY1058, yeast nitrogen base dextrose agar; for MIC: read-out: Minimum Inhibitory Concentration
# Protocol: as §11, §12
# [16] = system: Ca. parapsilosis MY1010; assay: Agar dilution assay, MIC; format: cell-based; conditions: strain MY1010, yeast nitrogen base dextrose agar; for MIC: read-out: Minimum Inhibitory Concentration
# Protocol: as §11, §12
# [17] = system: Ca. krusei MY1020; assay: Agar dilution assay, MIC; format: cell-based; conditions: strain MY1020, yeast nitrogen base dextrose agar; for MIC: read-out: Minimum Inhibitory Concentration
# Protocol: as §11, §12
# [18] = system: Ca. parapsilosis MY1009; assay: Agar dilution assay, MIC; format: cell-based; conditions: strain MY1009, yeast nitrogen base dextrose agar; for MIC: read-out: Minimum Inhibitory Concentration
# Protocol: as §11, §12
# [19] = system: Ca. guilliermondi MY1019; assay: Agar dilution assay, MIC; format: cell-based; conditions: strain MY1019, yeast nitrogen base dextrose agar; for MIC: read-out: Minimum Inhibitory Concentration
# Protocol: as §11, §12
# [20] = system: Cryptococcus neoformans MY1051; assay: Agar dilution assay, MIC; format: cell-based; conditions: strain MY1051, yeast nitrogen base dextrose agar; for MIC: read-out: Minimum Inhibitory Concentration
# Protocol: as §11, §12
# [21] = system: Penicillium italicum MF2819; assay: Agar dilution assay, MIC; format: cell-based; conditions: strain MF2819, yeast nitrogen base dextrose agar; for MIC: read-out: Minimum Inhibitory Concentration
# Protocol: as §11, §12
# [22] = system: Ca. stellatoidea MY1017; assay: Agar dilution assay, MIC; format: cell-based; conditions: strain MY1017, yeast nitrogen base dextrose agar; for MIC: read-out: Minimum Inhibitory Concentration
# Protocol: as §11, §12
# [23] = system: Torulopsis glabrata MY1059; assay: Agar dilution assay, MIC; format: cell-based; conditions: strain MY1059, yeast nitrogen base dextrose agar; for MIC: read-out: Minimum Inhibitory Concentration
# Protocol: as §11, §12
# [24] = system: Aspergillus fumigatus MF4839; assay: Agar dilution assay, MIC; format: cell-based; conditions: strain MF4839, yeast nitrogen base dextrose agar; for MIC: read-out: Minimum Inhibitory Concentration
# Protocol: as §11, §12
# [25] = system: Ca. albicans MY1013; assay: Agar dilution assay, MIC; format: cell-based, Candida albicans; conditions: strain MY1013, yeast nitrogen base dextrose agar; for MIC: read-out: Minimum Inhibitory Concentration
# Protocol: as §11, §12
# [26] = system: Ca. albicans MY1029; assay: Agar dilution assay, MIC; format: cell-based, Candida albicans; conditions: strain MY1029, yeast nitrogen base dextrose agar; for MIC: read-out: Minimum Inhibitory Concentration
# Protocol: as §11, §12
# [27] = system: Ca. albicans MY1055; assay: Agar dilution assay, MIC; format: cell-based, Candida albicans; conditions: strain MY1055, yeast nitrogen base dextrose agar; for MIC: read-out: Minimum Inhibitory Concentration
# Protocol: as §11, §12
# [28] = system: Ca. albicans MY0992; assay: Agar dilution assay, MIC; format: cell-based, Candida albicans; conditions: strain MY0992, yeast nitrogen base dextrose agar; for MIC: read-out: Minimum Inhibitory Concentration
# Protocol: as §11, §12
smiles,measurement,setting,value
"CCCCCCC(O)CCCCCCC=CC(O)C(O)C(O)C(NC(=N)N)C(=O)O (stereo not shown) [Compound IA, 2-guanidino-3,4,5,14-tetrahydroxy-6-eicosenoic acid]",antifungal activity,[1],good activity
same,antifungal activity,[2],good activity against almost all of the organisms
same,antifungal activity,[2]; listed as I-A,activity against a number of fungal organisms
same,antifungal activity,[3],good activity
same,antifungal activity,[3]; listed as I-A,especially good activity
same,antifungal activity,[4],good activity
same,antifungal activity,[5],good activity
same,antifungal activity,[6],good activity
same,antifungal activity,[7],good activity
"CCCCCCC(O)CCCCCCC=CC(O)C(O)C(O)C(N)C(=O)O (stereo not shown) [Compound IB, 2-amino-3,4,5,14-tetrahydroxy-6-eicosengoic acid]",MIC,[8],0.5 µg/mL
same,MIC,[9],64 µg/mL
same,MIC,[10],2 µg/mL
same,MIC,[11],2 µg/mL
same,MIC,[12],16 µg/mL
same,MIC,[13],> 64 µg/mL
same,antifungal activity,[2],consistently active against most of the 41 of the filamentous fungi and yeasts
same,MIC,[14],16 µg/mL
same,MIC,[15],16 µg/mL
same,MIC,[16],2 µg/mL
same,MIC,[17],> 64 µg/mL
same,MIC,[18],32 µg/mL
same,MIC,[19],> 64 µg/mL
same,MIC,[20],2 µg/mL
same,MIC,[21],> 64 µg/mL
same,MIC,[22],16 µg/mL
same,MIC,[23],16 µg/mL
same,MIC,[24],64 µg/mL
same,MIC,[25],32 µg/mL
same,MIC,[26],64 µg/mL
same,MIC,[27],32 µg/mL
same,MIC,[28],32 µg/mL
"CCCCCCC(O)CCCCCCC=CC(OC(C)=O)C(O)C(O)C(N)C(=O)O (stereo not shown) [Compound IC, 5-acetyloxy-2-amino-3,4,14-trihydroxy-6-eicosenoic acid]",MIC,[8],2 µg/mL
same,MIC,[9],64 µg/mL
same,MIC,[10],2 µg/mL
same,MIC,[11],2 µg/mL
same,MIC,[12],32 µg/mL
same,MIC,[13],> 128 µg/mL
same,MIC,[14],32 µg/mL
same,MIC,[15],32 µg/mL
same,MIC,[16],8 µg/mL
same,MIC,[17],> 128 µg/mL
same,MIC,[18],> 128 µg/mL
same,MIC,[19],> 128 µg/mL
same,MIC,[20],2 µg/mL
same,MIC,[21],32 µg/mL
same,MIC,[22],32 µg/mL
same,MIC,[23],16 µg/mL
same,MIC,[24],64 µg/mL
same,MIC,[25],128 µg/mL
same,MIC,[26],> 128 µg/mL
same,MIC,[27],128 µg/mL
same,MIC,[28],128 µg/mL
"C[C@@H]1[C@H](O)[C@@H](C)/C=C/C=C/CC/C=C/C=C/C=C/C=C/C(O[C@H]2O[C@H](C)[C@@H](O)[C@H](N)[C@@H]2O)CC2O[C@](O)(CC(O)C(O)CCC(O)CC(O)CC(O)CC(=O)O[C@H]1C)CC(O)C2C(=O)O (stereo partly shown) [Nystatin, reference compound]",Minimum Inhibitory Concentration,[8],1 µg/mL
same,Minimum Inhibitory Concentration,[9],2 µg/mL
same,Minimum Inhibitory Concentration,[10],2 µg/mL
same,Minimum Inhibitory Concentration,[11],> 128 µg/mL
same,Minimum Inhibitory Concentration,[12],2 µg/mL
same,Minimum Inhibitory Concentration,[13],4 µg/mL
same,Minimum Inhibitory Concentration,[14],1 µg/mL
same,Minimum Inhibitory Concentration,[15],2 µg/mL
same,Minimum Inhibitory Concentration,[16],2 µg/mL
same,Minimum Inhibitory Concentration,[17],2 µg/mL
same,Minimum Inhibitory Concentration,[18],4 µg/mL
same,Minimum Inhibitory Concentration,[19],2 µg/mL
same,Minimum Inhibitory Concentration,[20],2 µg/mL
same,Minimum Inhibitory Concentration,[21],2 µg/mL
same,Minimum Inhibitory Concentration,[22],2 µg/mL
same,Minimum Inhibitory Concentration,[23],1 µg/mL
same,Minimum Inhibitory Concentration,[24],2 µg/mL
same,Minimum Inhibitory Concentration,[25],2 µg/mL
same,Minimum Inhibitory Concentration,[26],2 µg/mL
same,Minimum Inhibitory Concentration,[27],2 µg/mL
same,Minimum Inhibitory Concentration,[28],2 µg/mL
